Here are results for 28 compounds from patent publication US20090209536A1, “AMINOQUINAZOLINE CANNABINOID RECEPTOR MODULATORS FOR TREATMENT OF DISEASE” (KALYPSYS, INC., priority 2007, published 2009).

Assay [1] deals with T1, human cannabinoid receptor type 1 (Homo sapiens, UniProt P21554).
T1 construct: purchased Perkin Elmer RBHCB1M; host or cells: HEK 293 EBNA cells
Kind of assay: Human CB1 Radioligand Binding Assay (basis of selectivity, CB2 vs. CB1). To be noted: CB1: HEK 293 EBNA cells expressing human CB1; CB2: CHO CB2 membranes. How it is done: 2. Human CB1 Radioligand Binding Assay
The incubation buffer was composed of 50 mM Tris-HCl pH 7.4, 2.5 mM EDTA, 5 mM MgCl2, 5.0 mg/ml fatty acid free BSA and the wash buffer was composed of 50 mM Tris-HCl pH 7.4, 2.5 mM EDTA, 5 mM MgCl2, 0.5 mg/ml fatty acid free BSA.

The target of assay [2] is T2, human cannabinoid receptor type 2 (Homo sapiens, UniProt P34972).
T2 construct: expressed in transfected cells; membrane preparation
Kind of assay: Human CB2 Radioligand Binding Assay. The settings on record: competition with [3H] CP-55,940; membranes from stably transfected CHO CB2 cells; read-out: CB2 Ligand Binding Asssay EC50. How it is done:
1. Human CB2 Radioligand Binding Assay
This receptor binding filtration assay measures the receptor-ligand interactions of compounds by measuring ability to compete with a radiolabeled control ligand. Reactions were performed in 96 deep-well plate (Costar 3961) with a final volume of 600 ul. Compounds were added to each well either in single point (10 uM final) or dose-response. Compounds were delivered in DMSO or further diluted in incubation buffer to a final assay DMSO concentration of 1%. Incubation buffer (50 mM Tris-HCl pH 7.4, 2.5 mM EGTA, 5 mM MgCl2, 5.0 mg/ml fatty acid free BSA) was added to each well. Following buffer addition, [^3H] CP-55,940 was added. Tritiated CP-55,940 (Perkin Elmer) was used at the Kd determined from prior saturation binding experiments conducted on each lot of membranes. Membrane preparations from stably transfected CHO CB2 cells were added and the reaction was incubated for 90 minutes at 30° C. Unifilter GF/C filtration plates (Perkin Elmer) were pre-wet with 0.05% polyethylenimine. Samples were transferred to Unifilter plates and separation of unbound radioligand was achieved using a vacuum manifold (Millipore). Following thorough washing with 5 ml/well ice-cold wash buffer (50 mM Tris-HCl pH 7.4, 2.5 mM EGTA, 5 mM MgCl2, 0.5 mg/ml fatty acid free BSA), filterplates were dried completely. Betaplate Scint Scintillation cocktail (25 ul, Perkin Elmer) was applied and plates were read using Microbeta Trilux (Wallac). Data analysis was performed in Spotfire. Activity of the positive control (100 nM CP-55,940) was set as 100% efficacy.
Stable recombinant Human CB2-CHO cell membranes were prepared as follows: Chinese Hamster Ovarian (CHO) cells stably expressing human cannabinoid receptor type 2 were grown to 90% confluence in 15×100 mm culture dishes under puromycin selection (5 ug/ml) Cells were harvested from culture flasks using a cell scraper, were washed once with cold phosphate-buffered saline (calcium and magnesium free) and pelleted by centrifugation at 400 g for 5 min at 4° C. Cell pellet was washed once with cold phosphate-buffered saline and centrifuged again at 400×g for 5 min at 4° C. The pellet was suspended in ice-cold lysis buffer (10 mM Tris-HCl, 0.1 mM EDTA, containing […], pH 7.5) and homogenized in a chilled 7 ml glass dounce homogenizer using 50 strokes. The homogenate was centrifuged at 400 g for 15 min at 4° C. The cloudy supernatant was collected and centrifuged at 41000 g for 30 min at 4° C. The resulting pellet was washed with ice-cold sucrose-free lysis buffer and centrifuged again at 41000 g for 30 min at 4° C. The membrane pellet was suspended in sucrose-free storage buffer (10 mm Tris-HCl, 0.1 mM EDTA, pH 7.5) to a concentration of 2-3 mg protein/ml. Aliquots were flash frozen in liquid nitrogen and stored at −80° C. Concentration was determined using Dc protein assay kit (Bio-Rad).

SMILES strings stand for the structures. Some results are limits rather than exact numbers.

T1 sequence (P21554 whole entry): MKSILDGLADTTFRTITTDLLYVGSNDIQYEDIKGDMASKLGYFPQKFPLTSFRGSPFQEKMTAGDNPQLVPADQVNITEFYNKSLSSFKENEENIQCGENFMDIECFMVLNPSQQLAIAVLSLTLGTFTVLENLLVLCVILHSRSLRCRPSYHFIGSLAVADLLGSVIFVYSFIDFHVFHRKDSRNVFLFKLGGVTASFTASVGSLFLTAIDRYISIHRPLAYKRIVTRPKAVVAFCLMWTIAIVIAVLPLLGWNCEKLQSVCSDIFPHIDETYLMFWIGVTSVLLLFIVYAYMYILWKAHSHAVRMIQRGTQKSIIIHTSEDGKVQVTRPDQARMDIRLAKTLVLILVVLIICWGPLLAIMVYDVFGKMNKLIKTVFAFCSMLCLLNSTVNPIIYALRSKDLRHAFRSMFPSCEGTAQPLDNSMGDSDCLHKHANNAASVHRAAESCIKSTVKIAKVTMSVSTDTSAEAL
T2 sequence (P34972 whole entry): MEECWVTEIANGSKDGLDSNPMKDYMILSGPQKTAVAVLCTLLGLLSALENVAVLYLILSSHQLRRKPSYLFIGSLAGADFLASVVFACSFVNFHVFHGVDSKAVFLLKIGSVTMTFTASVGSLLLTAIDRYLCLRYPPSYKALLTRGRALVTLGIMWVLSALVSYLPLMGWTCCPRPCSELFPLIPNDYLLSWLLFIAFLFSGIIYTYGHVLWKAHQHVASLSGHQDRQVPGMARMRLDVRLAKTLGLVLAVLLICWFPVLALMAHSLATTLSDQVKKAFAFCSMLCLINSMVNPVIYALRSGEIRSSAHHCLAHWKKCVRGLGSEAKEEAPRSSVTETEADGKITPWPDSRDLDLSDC

In the case of `O=S(=O)(NCc1nc(N2CCCC2)c2ccccc2n1)c1cccc2ccccc12` [Example 1, N-((4-(Pyrrolidin-1-yl)quinazolin-2-yl)methyl)naphthalene-1-sulfonamide], in assay [1], the “Selectivity, CB2 vs. CB1” value is reported as “+ (+ indicates > 10−fold)”. Moreover, in assay [2], the EC50 was less than 1 µM.

Consider `Cc1cccc2c(N3CCCC3)nc(CNS(=O)(=O)c3cccc4ccccc34)nc12` [Example 2, N-((8-Methyl-4-(pyrrolidin-1-yl)quinazolin-2-yl)methyl)naphthalene-1-sulfonamide], for which the “Selectivity, CB2 vs. CB1” value in assay [1] is “+ (+ indicates > 10−fold)”. Further, the concentration giving a half-maximal response (EC50) in assay [2] is less than 1 µM.

For `O=S(=O)(NCc1nc(N2CCCC2)c2ccccc2n1)c1ccccc1` [Example 3, N-((4-(Pyrrolidin-1-yl)quinazolin-2-yl)methyl)benzenesulfonamide], in assay [1], the “Selectivity, CB2 vs. CB1” value is “+ (+ indicates > 10−fold)”. Further, in assay [2], the concentration giving a half-maximal response (EC50) was less than 1 µM.

As for `O=S(=O)(NCc1nc(N2CCCC2)c2ccccc2n1)c1ccc(F)cc1F` [Example 4, 2,4-Difluoro-N-((4-(pyrrolidin-1-yl)quinazolin-2-yl)methyl)benzenesulfonamide], in assay [1], the “Selectivity, CB2 vs. CB1” value is “− (− indicates ≦ 10−fold)”. Further, the half-maximal effective concentration (EC50) in assay [2] is less than 1 µM.

Consider `CN1CCN(c2nc(CNS(=O)(=O)c3cccc4ccccc34)nc3ccccc23)CC1` [Example 5, N-((4-(4-Methylpiperazin-1-yl)quinazolin-2-yl)methyl)naphthalene-1-sulfonamide], for which the “Selectivity, CB2 vs. CB1” value in assay [1] is on record as “+ (+ indicates > 10−fold)”. In assay [2], the EC50 was less than 1 µM.

Regarding `CN1CCN(c2nc(CNS(=O)(=O)c3ccc4ccccc4c3)nc3ccccc23)CC1` [Example 6, N-((4-(4-methylpiperazin-1-yl)quinazolin-2-yl)methyl)naphthalene-2-sulfonamide], the “Selectivity, CB2 vs. CB1” value in assay [1] was “+ (+ indicates > 10−fold)”. Also, the concentration giving a half-maximal response (EC50) in assay [2] was greater than 1 µM.

As to `COC(=O)c1sccc1S(=O)(=O)NCc1nc(N2CCCC2)c2ccccc2n1` [Example 7, Methyl 3-(N-((4-(Pyrrolidin-1-yl)quinazolin-2-yl)methyl)sulfamoyl)thiophene-2-carboxylate], in assay [1], the “Selectivity, CB2 vs. CB1” value is listed as “+ (+ indicates > 10−fold)”. Moreover, the half-maximal effective concentration (EC50) in assay [2] was less than 1 µM.

`CNC(=O)c1sccc1S(=O)(=O)NCc1nc(N2CCCC2)c2ccccc2n1` [Example 8, N-Methyl-3-(N-((4-(pyrrolidin-1-yl)quinazolin-2-yl)methyl)sulfamoyl)thiophene-2-carboxamide]: the “Selectivity, CB2 vs. CB1” value in assay [1] is “+ (+ indicates > 10−fold)”. In assay [2], the concentration giving a half-maximal response (EC50) was greater than 1 µM.

As for `CCN(CC)CCNC(=O)c1sccc1S(=O)(=O)NCc1nc(N2CCCC2)c2ccccc2n1` [Example 9, N-(2-(Diethylamino)ethyl)-3-(N-((4-(pyrrolidin-1-yl)quinazolin-2-yl)methyl)sulfamoyl)thiophene-2-carboxamide], the “Selectivity, CB2 vs. CB1” value in assay [1] was “− (− indicates ≦ 10−fold)”. Moreover, the EC50 in assay [2] is greater than 1 µM.

For `O=C(NCc1nc(N2CCCC2)c2ccccc2n1)Nc1ccc(Cl)cc1Cl` [Example 10, 1-(2,4-Dichlorophenyl)-3-((4-(pyrrolidin-1-yl)quinazolin-2-yl)methyl)urea], the “Selectivity, CB2 vs. CB1” value in assay [1] is recorded as “+ (+ indicates > 10−fold)”. The EC50 in assay [2] was greater than 1 µM.

As to `O=C(NCc1nc(N2CCCC2)c2ccccc2n1)Nc1ccc(Cl)c(C(F)(F)F)c1` [Example 11, 1-(4-Chloro-3-(trifluoromethyl)phenyl)-3-((4-(pyrrolidin-1-yl)quinazolin-2-yl)methyl)urea], the “Selectivity, CB2 vs. CB1” value in assay [1] is “− (− indicates ≦ 10−fold)”. Besides, the 50% effective concentration (EC50) in assay [2] was greater than 1 µM.

`O=C(NCc1nc(N2CCCC2)c2ccccc2n1)c1ccc(Cl)cc1` [Example 12, 4-Chloro-N-((4-(pyrrolidin-1-yl)quinazolin-2-yl)methyl)benzamide]: the “Selectivity, CB2 vs. CB1” value in assay [1] was “− (− indicates ≦ 10−fold)”. Further, the half-maximal effective concentration (EC50) in assay [2] was greater than 1 µM.

`Fc1ccc(-c2nc(N3CCCC3)c3ccccc3n2)cc1F` [Example 13, 2-(3,4-Difluorophenyl)-4-(pyrrolidin-1-yl)quinazoline]: the “Selectivity, CB2 vs. CB1” value in assay [1] is reported as “− (− indicates ≦ 10−fold)”. The 50% effective concentration (EC50) in assay [2] is less than 1 µM.

Consider `Fc1ccc(-c2nc(N3CCCC3)c3ccccc3n2)cc1F` [Example 14, 2-(3,4-Difluorophenyl)-4-(pyrrolidin-1-yl)quinazoline], for which the EC50 in assay [2] was greater than 1 µM.

In the case of `Fc1ccc(-c2nc(N3CCCCC3)c3ccccc3n2)cc1F` [Example 15, 2-(3,4-difluorophenyl)-4-(piperidin-1-yl)quinazoline], in assay [1], the “Selectivity, CB2 vs. CB1” value is on record as “− (− indicates ≦ 10−fold)”. In addition, the concentration for a half-maximal effect (EC50) in assay [2] is less than 1 µM.

In the case of `Fc1ccc(-c2nc(N3CCOCC3)c3ccccc3n2)cc1F` [Example 16, 4-(2-(3,4-difluorophenyl)quinazolin-4-yl)morpholine], the “Selectivity, CB2 vs. CB1” value in assay [1] was “− (− indicates ≦ 10−fold)”. In addition, the EC50 in assay [2] was greater than 1 µM.

For `CN(Cc1ccccc1)c1nc(C2CCCCC2)nc2ccccc12` [Example 39, N-Benzyl-2-cyclohexyl-N-methylquinazolin-4-amine], the concentration giving a half-maximal response (EC50) in assay [2] was less than 1 µM.

`CC(C)(C)c1ccc(-c2nc(NC3CCCCC3)c3ccccc3n2)cc1` [Example 129, 2-(4-tert-Butylphenyl)quinazolin-4-yl cyclohexylamine]: the 50% effective concentration (EC50) in assay [2] was less than 1 µM.

Regarding `c1ccc2c(N3CCCC3)nc(C3CCCC3)nc2c1` [Example 135, 2-Cyclopentyl-4-pyrrolidin-1-ylquinazoline], in assay [2], the EC50 was greater than 1 µM.

In the case of `CC(C)(C)c1ccc(Nc2nc(-c3ccc(OC(F)(F)F)cc3)nc3ccccc23)cc1` [Example 143, (4-tert-Butylphenyl)-[2-(4-trifluoromethoxyphenyl)-quinazolin-4-yl]amine], in assay [2], the EC50 was greater than 1 µM.

In the case of `CN1CCN(c2nc(-c3ccccc3Cl)nc3ccc(Br)cc23)CC1` [Example 183, 6-Bromo-2-(2-chlorophenyl)-4-(4-methylpiperazin-1-yl)quinazoline], the EC50 in assay [2] was less than 1 µM.

As for `CCOC(=O)N1CCN(c2nc(-c3ccc(Cl)cc3)nc3ccc(Cl)cc23)CC1` [Example 210, Ethyl 4-(6-chloro-2-(4-chlorophenyl)quinazolin-4-yl)piperazine-1-carboxylate], in assay [2], the EC50 is greater than 1 µM.

Regarding `COC(CNc1nc(-c2ccccc2Cl)nc2ccccc12)OC` [Example 230, 2-(2-Chlorophenyl)-N-(2,2-dimethoxyethyl)quinazolin-4-amine], the 50% effective concentration (EC50) in assay [2] is greater than 1 µM.

Consider `O=S(=O)(NCc1nc(N2CCOCC2)c2ccccc2n1)c1ccccc1Br` [Example 292, 2-Bromo-N-((4-morpholinoquinazolin-2-yl)methyl)benzenesulfonamide], for which, in assay [2], the concentration for a half-maximal effect (EC50) was less than 1 µM.

Turning to `O=S(=O)(NCc1nc(N2CCOCC2)c2ccccc2n1)c1ccc(Cl)cc1` [Example 293, 4-Chloro-N-((4-morpholinoquinazolin-2-yl)methyl)benzenesulfonamide], the 50% effective concentration (EC50) in assay [2] was greater than 1 µM.

For `Cc1c(Cl)cccc1S(=O)(=O)NCc1nc(N2CCOCC2)c2ccccc2n1` [Example 295, 3-Chloro-2-methyl-N-((4-morpholinoquinazolin-2-yl)methyl)benzenesulfonamide], in assay [2], the EC50 is greater than 1 µM.

In the case of `CCOC(=O)N1CCN(c2nc(-c3ccccc3Cl)nc3cc(C(=O)N(CC)CC)ccc23)CC1` [Example 319, Ethyl 4-(2-(2-chlorophenyl)-7-(diethylcarbamoyl)quinazolin-4-yl)piperazine-1-carboxylate], in assay [2], the concentration giving a half-maximal response (EC50) was greater than 1 µM.

Regarding `COC(=O)c1ccc2nc(-c3ccccc3Cl)nc(Nc3ccccc3C)c2c1` [Example 329, Methyl 2-(2-chlorophenyl)-4-(o-tolylamino)quinazoline-6-carboxylate], the EC50 in assay [2] is greater than 1 µM.

Broadly, the EC50 is the concentration giving half of the maximal effect.
